Earlier results on one compound are cited in US6811791B2, “Method and concentrated composition for insect and animal control” (priority 2001, dated 2004).

The conditions of the series: classified by the EPA.

As for `CNC(=O)CSP(=S)(OC)OC` [Dimethoate, dimethoate], the EPA carcinogen classification entry is recorded as “group 3 carcinogen”.
